Data from PubChem BioAssay AID1963971 (Molecular Pharmacology Branch, DTP, NCI, 2024).
“And” between values parts separate entries of the source, which are not always exact repeats. Identical values can stand only once.

System: 953936-095-R-J2-PDC spheroids with HUVEC/MSC, viability
Experiment: Anticancer human tumor 953936-095-R-J2-PDC patient-derived cervical squamous cell carcinoma cell line growth inhibition [PI3K]
Conditions: for viability, T/C: stronger effect = lower value
Summary of the method: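 Stroma-containing spheroids: tumor line, pooled-donor HUVEC, hMSC. Treatments: targeted agents with PI3K inhibitors. Dosing: clinically relevant, half-log spacing, 10 microM ceiling without known Cmax. Read-out: cell viability.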

[1] = curve of first compound, second compound 0.00316 µM
[2] = curve of first compound, second compound 0.01 µM
[3] = curve of first compound, second compound 0.0316 µM
[4] = curve of first compound, second compound 0.1 µM
[5] = curve of first compound, second compound 0.316 µM
[6] = curve of first compound, second compound 1 µM
[7] = second compound 0.00316 µM, first compound 0.0316 µM
[8] = second compound 0.00316 µM, first compound 0.1 µM
[9] = second compound 0.01 µM, first compound 0.0316 µM
[10] = second compound 0.01 µM, first compound 0.1 µM
[11] = second compound 0.0316 µM, first compound 0.0316 µM
[12] = second compound 0.0316 µM, first compound 0.1 µM
[13] = second compound 0.1 µM, first compound 0.0316 µM
[14] = second compound 0.1 µM, first compound 0.1 µM
[15] = second compound 0.316 µM, first compound 0.0316 µM
[16] = second compound 0.316 µM, first compound 0.1 µM
[17] = second compound 1 µM, first compound 0.0316 µM
[18] = second compound 1 µM, first compound 0.1 µM
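Note: spheroids exposed to compounds for seven days before read-out.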

In the case of `CCCS(=O)(=O)Nc1ccc(F)c(C(=O)c2c[nH]c3ncc(-c4ccc(Cl)cc4)cc23)c1F` + CC(Nc1ccc2c(c1)OCCn1cc(N3C(=O)OCC3C(F)F)nc1-2)C(N)=O, the IC50 [1] is reported as 5190 nM, the IC50 [2] is reported as 4760 nM and the IC50 [3] is reported as 4770 nM. The IC50 [4] was 3260 nM, the IC50 [5] was < 31.6 nM and the IC50 [6] was < 31.6 nM. For the same compound, the viability, T/C [7] was 93.9%, the viability, T/C [8] was 101% and the viability, T/C (second compound 0.00316 µM, first compound 0.316 µM) was 104%. It also gave a viability, T/C (second compound 0.00316 µM, first compound 1 µM) of 111%, a viability, T/C (second compound 0.00316 µM, first compound 3.16 µM) of 87.3% and a viability, T/C (second compound 0.00316 µM, first compound 10 µM) of 0.81%. The viability, T/C [9] was 91.7%, the viability, T/C [10] was 94.8% and the viability, T/C (second compound 0.01 µM, first compound 0.316 µM) was 96.4%. For the same compound, the viability, T/C (second compound 0.01 µM, first compound 1 µM) was 98.7%, the viability, T/C (second compound 0.01 µM, first compound 3.16 µM) was 77.1% and the viability, T/C (second compound 0.01 µM, first compound 10 µM) was 0.48%. For the same compound, the viability, T/C [11] was 82%, the viability, T/C [12] was 78.7% and the viability, T/C (second compound 0.0316 µM, first compound 0.316 µM) was 78.7%. It also gave a viability, T/C (second compound 0.0316 µM, first compound 1 µM) of 81.9%, a viability, T/C (second compound 0.0316 µM, first compound 3.16 µM) of 75.6% and a viability, T/C (second compound 0.0316 µM, first compound 10 µM) of 3.87%. The viability, T/C [13] was 56.3%, the viability, T/C [14] was 58.7% and the viability, T/C (second compound 0.1 µM, first compound 0.316 µM) was 59%. The viability, T/C (second compound 0.1 µM, first compound 1 µM) was 56.1%, the viability, T/C (second compound 0.1 µM, first compound 3.16 µM) was 51.5% and the viability, T/C (second compound 0.1 µM, first compound 10 µM) was 0.85%. The viability, T/C [15] was 34%, the viability, T/C [16] was 34% and the viability, T/C (second compound 0.316 µM, first compound 0.316 µM) was 35.5%. For the same compound, the viability, T/C (second compound 0.316 µM, first compound 1 µM) was 35.8%, the viability, T/C (second compound 0.316 µM, first compound 3.16 µM) was 27.4% and the viability, T/C (second compound 0.316 µM, first compound 10 µM) was 0.86%. The viability, T/C [17] was 21.7%, the viability, T/C [18] was 23.6% and the viability, T/C (second compound 1 µM, first compound 0.316 µM) was 23.1%. For the same compound, the viability, T/C (second compound 1 µM, first compound 1 µM) was 26%, the viability, T/C (second compound 1 µM, first compound 3.16 µM) was 17.9% and the viability, T/C (second compound 1 µM, first compound 10 µM) was 0.87%.
For `CC(Cn1ccc(-c2ccc(C#N)c(Cl)c2)n1)NC(=O)c1cc(C(C)O)[nH]n1` (stereo not given), the viability, T/C (compound 0.0316 µM) was 91.2% [middle of 4 runs], the viability, T/C (compound 0.1 µM) was 96.5% [middle of 4 runs] and the viability, T/C (compound 0.316 µM) was 97.1% [middle of 4 runs]. The viability, T/C (compound 1 µM) was 108% and 101% (2×) and 96.8%, the viability, T/C (compound 10 µM) was 99.4% (2×) and 105% and 106% and the IC50 (curve of compound) was > 10000 nM.
In the case of `CC(C)n1nc(-c2ccc3oc(N)nc3c2)c2c(N)ncnc21` + COc1c(OCCCN2CCOCC2)ccc2c3n(c(=NC(=O)c4cnc(N)nc4)nc12)CCN3, the IC50 [1] is reported as 18.9 nM, the IC50 [2] is reported as 10.2 nM and the IC50 [3] is reported as < 0.316 nM. For the same compound, the IC50 [4] was < 0.316 nM, the IC50 [5] was < 0.316 nM and the IC50 [6] was < 0.316 nM. The viability, T/C (second compound 0.00316 µM, first compound 0.000316 µM) was 79%, the viability, T/C (second compound 0.00316 µM, first compound 0.001 µM) was 86.9% and the viability, T/C (second compound 0.00316 µM, first compound 0.00316 µM) was 84%. The viability, T/C (second compound 0.00316 µM, first compound 0.01 µM) was 60.3%, the viability, T/C [7] was 40.3% and the viability, T/C [8] was 14.4%. The viability, T/C (second compound 0.01 µM, first compound 0.000316 µM) was 66.7%, the viability, T/C (second compound 0.01 µM, first compound 0.001 µM) was 64.8% and the viability, T/C (second compound 0.01 µM, first compound 0.00316 µM) was 60.1%. It also gave a viability, T/C (second compound 0.01 µM, first compound 0.01 µM) of 51.5%, a viability, T/C [9] of 27.8% and a viability, T/C [10] of 11.2%. It also gave a viability, T/C (second compound 0.0316 µM, first compound 0.000316 µM) of 38.8%, a viability, T/C (second compound 0.0316 µM, first compound 0.001 µM) of 36% and a viability, T/C (second compound 0.0316 µM, first compound 0.00316 µM) of 31.5%. The viability, T/C (second compound 0.0316 µM, first compound 0.01 µM) was 23.5%, the viability, T/C [11] was 16.2% and the viability, T/C [12] was 7.15%. The viability, T/C (second compound 0.1 µM, first compound 0.000316 µM) was 18.2%, the viability, T/C (second compound 0.1 µM, first compound 0.001 µM) was 15.9% and the viability, T/C (second compound 0.1 µM, first compound 0.00316 µM) was 14.9%. For the same compound, the viability, T/C (second compound 0.1 µM, first compound 0.01 µM) was 11.2%, the viability, T/C [13] was 8.1% and the viability, T/C [14] was 4.33%. For the same compound, the viability, T/C (second compound 0.316 µM, first compound 0.000316 µM) was 6.68%, the viability, T/C (second compound 0.316 µM, first compound 0.001 µM) was 6.67% and the viability, T/C (second compound 0.316 µM, first compound 0.00316 µM) was 5.27%. For the same compound, the viability, T/C (second compound 0.316 µM, first compound 0.01 µM) was 4.78%, the viability, T/C [15] was 3.56% and the viability, T/C [16] was 2.2%. The viability, T/C (second compound 1 µM, first compound 0.000316 µM) was 1.45%, the viability, T/C (second compound 1 µM, first compound 0.001 µM) was 1.56% and the viability, T/C (second compound 1 µM, first compound 0.00316 µM) was 1.21%. It also gave a viability, T/C (second compound 1 µM, first compound 0.01 µM) of 1.41%, a viability, T/C [17] of 1.36% and a viability, T/C [18] of 1.27%.
